Results as given in the NIST ThermoML archive (doi:10.1016/j.jct.2016.02.007).

Assay: wn = mass fraction of the nth substance listed
Conditions: 101.3 kPa, Liquid, Vibrating tube method

CN(C)CCCO [3-dimethylamino-1-propanol] + O
mass density [kg/m3]
Conditions	w1 = 0.1	w1 = 0.2	w1 = 0.3	w1 = 0.4	w1 = 0.5	w1 = 0.6	w1 = 0.7	w1 = 0.8	w1 = 0.9	w1 = 1
293.15 K	992.9	989.7	986.6	981.7	975.1	962.4	948.3	933.1	910.9	886.7
298.15 K	991.5	987.7	983.9	978.3	971.4	958.5	944.3	929.2	907.1	883
303.15 K	989.8	985.5	980.9	974.9	967.6	954.6	940.2	925.2	903.2	879.1
308.15 K	987.9	983.1	978	971.4	963.8	950.6	936.1	921.2	899.2	875.1
313.15 K	985.9	980.4	974.8	967.8	959.9	946.5	932	917.1	895.2	871.2
318.15 K	983.6	977.3	971.6	964.2	956	942.4	927.8	912.9	891.1	867.2
323.15 K	981.2	975	968.2	960.4	952.1	938.2	923.6	908.7	887	863.1
328.15 K	978.6	972	964.7	956.7	948	934	919.3	904.5	882.9	859.1
333.15 K	975.9	968.9	961	952.8	943.9	929.7	915	900.2	878.7	855
338.15 K	973.1	965.8	957.9	948.9	939.8	925.4	910.6	895.8	874.4	850.8
343.15 K	970.1	962.5	954.2	944.9	935.6	921	906.2	891.4	870.1	846.7
